pIC50: −log10 of the molar value.
Target: canine TRPM8 (Canis lupus familiaris, UniProt Q1A7N1)
Experiment: In Vitro Canine TRPM8 Functional Assay (Ca2+ fluorescence, icilin activation)
Assay type: cell-based
Conditions: for inhibition at 0.2 µM: compound at 0.2 μM, read-out: % Inh @ 0.2; for inhibition at 0.2 µM / inhibition at 0.5 µM: canine TRPM8, icilin activation; for inhibition at 0.5 µM: compound at 0.5 μM, read-out: % Inh @ 0.5; for pIC50: HEK293 cells stably expressing canine TRPM8, icilin activation, eight-point dose-response, read-out: IC50
Procedure, shortened: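 Eight-point dose-response curves, each point averaging quadruplicate wells, gave EC50 or IC50. Canine TRPM8-expressing HEK293 cells, dye-loaded (Calcium 3), were pre-exposed 5 min to compound, then challenged with icilin at roughly EC80; intracellular Ca2+ read by FLIPR or FDSS fluorescence.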

Chain of canine TRPM8 (Q1A7N1 1-1104): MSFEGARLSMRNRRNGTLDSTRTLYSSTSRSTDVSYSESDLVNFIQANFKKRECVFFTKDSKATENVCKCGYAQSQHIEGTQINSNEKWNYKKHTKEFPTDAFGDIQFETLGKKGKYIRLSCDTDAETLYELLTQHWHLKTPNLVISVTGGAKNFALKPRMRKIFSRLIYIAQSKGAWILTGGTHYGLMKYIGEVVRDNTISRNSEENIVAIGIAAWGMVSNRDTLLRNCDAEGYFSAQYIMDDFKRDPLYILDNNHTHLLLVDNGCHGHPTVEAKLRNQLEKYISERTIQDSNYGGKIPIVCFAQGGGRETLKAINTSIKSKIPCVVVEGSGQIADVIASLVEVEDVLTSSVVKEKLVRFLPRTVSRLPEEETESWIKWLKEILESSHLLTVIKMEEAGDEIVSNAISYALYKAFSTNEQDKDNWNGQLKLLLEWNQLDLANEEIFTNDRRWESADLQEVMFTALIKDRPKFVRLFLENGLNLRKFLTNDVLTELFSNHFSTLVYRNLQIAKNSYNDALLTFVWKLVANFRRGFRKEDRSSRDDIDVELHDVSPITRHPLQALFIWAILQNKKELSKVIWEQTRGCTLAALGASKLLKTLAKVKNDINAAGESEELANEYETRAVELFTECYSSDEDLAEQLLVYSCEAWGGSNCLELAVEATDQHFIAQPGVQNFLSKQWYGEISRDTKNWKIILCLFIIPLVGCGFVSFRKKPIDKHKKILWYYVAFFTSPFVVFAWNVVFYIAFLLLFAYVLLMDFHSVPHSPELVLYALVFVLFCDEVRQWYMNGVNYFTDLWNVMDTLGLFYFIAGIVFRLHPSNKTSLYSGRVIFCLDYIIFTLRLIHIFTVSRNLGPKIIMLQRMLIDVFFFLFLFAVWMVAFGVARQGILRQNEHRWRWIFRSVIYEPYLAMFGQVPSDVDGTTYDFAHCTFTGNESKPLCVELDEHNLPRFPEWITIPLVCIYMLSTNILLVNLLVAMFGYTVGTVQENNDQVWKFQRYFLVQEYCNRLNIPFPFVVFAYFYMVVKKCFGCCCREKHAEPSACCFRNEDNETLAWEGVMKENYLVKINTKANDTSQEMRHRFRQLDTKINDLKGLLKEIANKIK

SMILES	inhibition at 0.2 µM [%]	inhibition at 0.5 µM [%]	pIC50
CCS(=O)(=O)N(CCN1CCOCC1)c1sc2ccccc2c1C(C)=O [Compound 124, N-(3-Acetyl-benzo[b]thiophen-2-yl)-N-(2-morpholin-4-yl-ethyl)-ethanesulfonamide]	14		
Cn1cnc(S(=O)(=O)N(Cc2ccc(F)c(F)c2)c2cc3ccccc3s2)c1 [Compound 130, N-(Benzo[b]thiophen-2-yl)-N-(3,4-difluoro-benzyl)-1-methyl-1H-imidazole-4-sulfonamide]		98	6.98
O=S(=O)(c1ccc(C(F)(F)F)cc1)N(Cc1ccc(F)c(F)c1)c1cc2ccccc2s1 [Compound 132, N-(Benzo[b]thiophen-2-yl)-N-(3,4-difluoro-benzyl)-4-trifluoromethyl-benzenesulfonamide]		56	
CS(=O)(=O)CS(=O)(=O)N(Cc1ccc(F)c(F)c1)c1cc2ccccc2s1 [Compound 133, N-(Benzo[b]thiophen-2-yl)-N-(3,4-difluoro-benzyl)-C-methanesulfonyl-methanesulfonamide]		97	7.22
COc1ccc(S(=O)(=O)N(Cc2ccc(F)c(C(F)(F)F)c2)c2cc3ccccc3s2)cc1 [Compound 134, N-(Benzo[b]thiophen-2-yl)-N-(4-fluoro-3-trifluoromethyl-benzyl)-4-methoxy-benzenesulfonamide]	30		
COC(=O)c1ccc(S(=O)(=O)N(Cc2ccc(F)c(C(F)(F)F)c2)c2cc3ccccc3s2)cc1 [Compound 135, N-(Benzo[b]thiophen-2-yl)-N-(4-fluoro-3-trifluoromethyl-benzyl)-4-carbomethoxy-benzenesulfonamide]	18		
COC(=O)c1cccc(S(=O)(=O)N(Cc2ccc(F)c(C(F)(F)F)c2)c2cc3ccccc3s2)c1 [Compound 136, N-(Benzo[b]thiophen-2-yl)-N-(4-fluoro-3-trifluoromethyl-benzyl)-3-carbomethoxy-benzenesulfonamide]	40		
COC(=O)c1ccccc1S(=O)(=O)N(Cc1ccc(F)c(C(F)(F)F)c1)c1cc2ccccc2s1 [Compound 139, N-(Benzo[b]thiophen-2-yl)-N-(4-fluoro-3-trifluoromethyl-benzyl)-2-carbomethoxy-benzenesulfonamide]	91		7.21
O=S(=O)(c1ccccc1)N(Cc1ccc(F)cc1)c1sc2ccccc2c1Br [Compound 140, N-(3-Bromo-benzo[b]thiophen-2-yl)-N-(4-fluoro-benzyl)-benzenesulfonamide]		98	8.70
COc1ccc2c(Br)c(N(Cc3ccc(F)c(F)c3)S(=O)(=O)c3cccnc3)sc2c1 [Compound 141, N-(3-Bromo-6-methoxy-benzo[b]thiophen-2-yl)-N-(3,4-difluoro-benzyl)-pyridin-3-yl-sulfonamide]	18		
O=S(=O)(c1ccccc1)N(Cc1ccc(F)c(F)c1)c1cc2cccnc2s1 [Compound 147, N-(3,4-Difluoro-benzyl)-N-thieno[2,3-b]pyridin-2-yl-benzenesulfonamide]		96	7.11
Cn1cnc(S(=O)(=O)N(Cc2ccc(F)c(F)c2)c2sc3ccccc3c2Br)c1 [Compound 150, N-(3-Bromo-benzo[b]thiophen-2-yl)-N-(3,4-difluoro-benzyl)-1-methyl-1H-imidazole-4-sulfonamide]		100	7.81
CCS(=O)(=O)N(Cc1ccc(F)c(F)c1)c1sc2ccccc2c1Br [Compound 152, N-(3-Bromo-benzo[b]thiophen-2-yl)-N-(3,4-difluoro-benzyl)-ethanesulfonamide]		95	8.59
CCCS(=O)(=O)N(Cc1ccc(F)c(F)c1)c1sc2ccccc2c1Br [Compound 153, N-(3-Bromo-benzo[b]thiophen-2-yl)-N-(3,4-difluoro-benzyl)-propane-1-sulfonamide]		97	7.73
CCCCS(=O)(=O)N(Cc1ccc(F)c(F)c1)c1sc2ccccc2c1Br [Compound 154, N-(3-Bromo-benzo[b]thiophen-2-yl)-N-(3,4-difluoro-benzyl)-butane-1-sulfonamide]		96	7.44
CS(=O)(=O)N(Cc1ccc(F)c(C(F)(F)F)c1)c1sc2ccccc2c1Br [Compound 157, N-(3-Bromo-benzo[b]thiophen-2-yl)-N-(4-fluoro-3-trifluoromethyl-benzyl)-methanesulfonamide]	100		7.85
O=S(=O)(c1ccccc1)N(Cc1ccc(Cl)cc1)c1sc2ccccc2c1Cl [Compound 158, N-(3-Chloro-benzo[b]thiophen-2-yl)-N-(4-chloro-benzyl)-benzenesulfonamide]		94	7.98
O=S(=O)(c1ccccc1)N(Cc1ccc(Cl)cc1)c1sc2ccccc2c1Br [Compound 159, N-(3-Bromo-benzo[b]thiophen-2-yl)-N-(4-chloro-benzyl)-benzenesulfonamide]		98	7.87
COc1ccccc1CN(c1sc2ccccc2c1Br)S(=O)(=O)c1ccccc1 [Compound 160, N-(3-Bromo-benzo[b]thiophen-2-yl)-N-(2-methoxy-benzyl)-benzenesulfonamide]		97	7.45
COc1ccc(Br)cc1CN(c1sc2ccccc2c1Br)S(=O)(=O)c1ccccc1 [Compound 161, N-(3-Bromo-benzo[b]thiophen-2-yl)-N-(5-bromo-2-methoxy-benzyl)-benzenesulfonamide]		95	7.26
COc1cccc(CN(c2sc3ccccc3c2Br)S(=O)(=O)c2ccccc2)c1 [Compound 162, N-(3-Bromo-benzo[b]thiophen-2-yl)-N-(3-methoxy-benzyl)-benzenesulfonamide]		101	8.35
COc1ccc(Br)c(CN(c2sc3ccccc3c2Br)S(=O)(=O)c2ccccc2)c1 [Compound 163, N-(3-Bromo-benzo[b]thiophen-2-yl)-N-(2-bromo-5-methoxy-benzyl)-benzenesulfonamide]		92	7.19

The next lines start with the values.

inhibition at 0.2 µM [%]	inhibition at 0.5 µM [%]	pIC50	SMILES
	45		Cc1c(N(Cc2ccc(F)c(F)c2)S(=O)(=O)Cc2ccccc2)sc2ccccc12 [Compound 126, N-(3,4-Difluoro-benzyl)-N-(3-methyl-benzo[b]thiophen-2-yl)-phenyl-methanesulfonamide]
	98	8.10	Cc1c(N(Cc2ccc(F)c(F)c2)S(=O)(=O)c2cccc(F)c2)sc2ccccc12 [Compound 127, N-(3,4-Difluoro-benzyl)-N-(3-methyl-benzo[b]thiophen-2-yl)-3-fluoro-benzenesulfonamide]
	99	8.05	Cc1c(N(Cc2ccc(F)c(F)c2)S(=O)(=O)c2ccccc2F)sc2ccccc12 [Compound 128, N-(3,4-Difluoro-benzyl)-N-(3-methyl-benzo[b]thiophen-2-yl)-2-fluoro-benzenesulfonamide]
	101	8.55	Cc1c(N(Cc2ccc(F)c(F)c2)S(=O)(=O)c2cccs2)sc2ccccc12 [Compound 129, N-(3,4-Difluoro-benzyl)-N-(3-methyl-benzo[b]thiophen-2-yl)-thiene-2-ylsulfonamide]
	95	7.32	O=S(=O)(c1cccc(F)c1)N(Cc1ccc(F)c(F)c1)c1cc2ccccc2s1 [Compound 131, N-(Benzo[b]thiophen-2-yl)-N-(3,4-difluoro-benzyl)-3-fluoro-benzenesulfonamide]
98		8.10	COC(=O)c1cccc(S(=O)(=O)N(Cc2ccc(F)c(C(F)(F)F)c2)c2sc3ccccc3c2C)c1 [Compound 137, N-(3-Methyl-benzo[b]thiophen-2-yl)-N-(4-fluoro-3-trifluoromethyl-benzyl)-3-carbomethoxy-benzenesulfonamide]
83		7.89	COC(=O)c1ccc(S(=O)(=O)N(Cc2ccc(F)c(C(F)(F)F)c2)c2sc3ccccc3c2C)cc1 [Compound 138, N-(3-Methyl-benzo[b]thiophen-2-yl)-N-(4-fluoro-3-trifluoromethyl-benzyl)-4-carbomethoxy-benzenesulfonamide]
	60		COc1cccc2cc(N(Cc3ccc(F)c(F)c3)S(=O)(=O)c3ccccc3)sc12 [Compound 142, N-(3,4-Difluoro-benzyl)-N-(7-methoxy-benzo[b]thiophen-2-yl)-benzenesulfonamide]
	48		COc1cccc2c(Cl)c(N(Cc3ccc(F)c(F)c3)S(=O)(=O)c3ccccc3)sc12 [Compound 143, N-(3-Chloro-7-methoxy-benzo[b]thiophen-2-yl)-N-(3,4-difluoro-benzyl)-benzenesulfonamide]
	62		COc1c(Cl)ccc2c(Cl)c(N(Cc3ccc(F)c(F)c3)S(=O)(=O)c3ccccc3)sc12 [Compound 144, N-(3,6-Dichloro-7-methoxy-benzo[b]thiophen-2-yl)-N-(3,4-difluoro-benzyl)-benzenesulfonamide]
	96	7.78	CS(=O)(=O)N(Cc1ccc(F)c(F)c1)c1sc2ccccc2c1Br [Compound 151, N-(3-Bromo-benzo[b]thiophen-2-yl)-N-(3,4-difluoro-benzyl)-methanesulfonamide]
	99	8.40	O=S(=O)(c1cccc(F)c1)N(Cc1ccc(F)c(F)c1)c1sc2ccccc2c1Br [Compound 155, N-(3-Bromo-benzo[b]thiophen-2-yl)-N-(3,4-difluoro-benzyl)-3-fluoro-benzenesulfonamide]
	65		O=S(=O)(c1ccc(C(F)(F)F)cc1)N(Cc1ccc(F)c(F)c1)c1sc2ccccc2c1Br [Compound 156, N-(3-Bromo-benzo[b]thiophen-2-yl)-N-(3,4-difluoro-benzyl)-4-trifluoromethyl-benzenesulfonamide]

Source: patent US9434711B2 (Janssen Pharmaceutica, NV, priority 2007, dated 2016)
